# From BindingDB's records for doi:10.1016/j.bioorg.2005.08.001 (Texas A&M University, 2005)
# Biological target: T1, Dihydroorotase (Escherichia coli (strain K12), UniProt P05020)
# T1 sequence (P05020 whole entry): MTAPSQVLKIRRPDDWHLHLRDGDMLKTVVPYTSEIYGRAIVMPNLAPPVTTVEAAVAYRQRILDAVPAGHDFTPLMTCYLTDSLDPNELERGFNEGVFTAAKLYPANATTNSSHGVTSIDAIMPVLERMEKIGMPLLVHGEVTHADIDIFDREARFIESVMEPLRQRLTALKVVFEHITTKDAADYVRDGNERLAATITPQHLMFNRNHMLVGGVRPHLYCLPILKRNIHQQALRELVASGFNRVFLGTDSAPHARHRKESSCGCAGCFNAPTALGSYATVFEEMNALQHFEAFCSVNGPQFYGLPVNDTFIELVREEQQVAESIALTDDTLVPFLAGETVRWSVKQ
# Test: Inhibition Assay
# Settings: pH 7
# Text: The DHO-catalyzed hydrolysis of dihydrooroate was monitored spectrophotoetrically at 230 and 280 nm using a SPECTRAmax (Molecular Device) plate reader.
smiles,measurement,value
"O=C1CC(=O)N[C@H](C(=O)O)C1 [4,6-dioxo-piperidine-2-carboxylic acid, 3]",Ki,76 mM
